Assay: xn = mol fraction of the nth substance listed
Details: Liquid, Vibrating tube method

CCCCCCCCCC [decane] + CCCCCCCC
Details	mass density [kg/m3]
323.15 K, 13000 kPa, x2 = 0.7736	698.56
323.15 K, 13000 kPa, x2 = 0.9623	692.26
323.15 K, 14000 kPa, x2 = 0.5314	706.56
323.15 K, 14000 kPa, x2 = 0.7736	699.43
323.15 K, 14000 kPa, x2 = 0.9623	693.16
323.15 K, 15000 kPa, x2 = 0.5314	707.39
323.15 K, 15000 kPa, x2 = 0.7736	700.3
323.15 K, 15000 kPa, x2 = 0.9623	694.06
323.15 K, 16000 kPa, x2 = 0.5314	708.22
323.15 K, 16000 kPa, x2 = 0.7736	701.16
323.15 K, 16000 kPa, x2 = 0.9623	694.94
323.15 K, 17000 kPa, x2 = 0.5314	709.02
323.15 K, 17000 kPa, x2 = 0.7736	702
323.15 K, 17000 kPa, x2 = 0.9623	695.8
323.15 K, 18000 kPa, x2 = 0.5314	709.85
323.15 K, 18000 kPa, x2 = 0.7736	702.81
323.15 K, 18000 kPa, x2 = 0.9623	696.65
323.15 K, 19000 kPa, x2 = 0.5314	710.62
323.15 K, 19000 kPa, x2 = 0.7736	703.6
323.15 K, 19000 kPa, x2 = 0.9623	697.48
323.15 K, 20000 kPa, x2 = 0.5314	711.38
323.15 K, 20000 kPa, x2 = 0.7736	704.4
323.15 K, 20000 kPa, x2 = 0.9623	698.3
323.15 K, 21000 kPa, x2 = 0.5314	712.12
323.15 K, 21000 kPa, x2 = 0.7736	705.18
323.15 K, 21000 kPa, x2 = 0.9623	699.1
323.15 K, 22000 kPa, x2 = 0.5314	712.85
323.15 K, 22000 kPa, x2 = 0.7736	705.95
323.15 K, 22000 kPa, x2 = 0.9623	699.83
323.15 K, 23000 kPa, x2 = 0.5314	713.54
323.15 K, 23000 kPa, x2 = 0.7736	706.68
323.15 K, 23000 kPa, x2 = 0.9623	700.57
323.15 K, 24000 kPa, x2 = 0.5314	714.24
323.15 K, 24000 kPa, x2 = 0.7736	707.39
323.15 K, 24000 kPa, x2 = 0.9623	701.31
323.15 K, 25000 kPa, x2 = 0.5314	714.88
323.15 K, 25000 kPa, x2 = 0.7736	708.08
323.15 K, 25000 kPa, x2 = 0.9623	702
323.19 K, 1000 kPa, x2 = 0.0616	706.61
323.19 K, 2000 kPa, x2 = 0.0616	707.46
323.19 K, 3000 kPa, x2 = 0.0616	708.43
323.19 K, 4000 kPa, x2 = 0.0616	709.27
323.19 K, 5000 kPa, x2 = 0.0616	710.19
323.19 K, 6000 kPa, x2 = 0.0616	711.06
323.19 K, 7000 kPa, x2 = 0.0616	711.94
323.19 K, 8000 kPa, x2 = 0.0616	712.81
323.19 K, 9000 kPa, x2 = 0.0616	713.68
323.19 K, 10000 kPa, x2 = 0.0616	714.53
323.19 K, 10990 kPa, x2 = 0.0616	715.36
323.19 K, 12000 kPa, x2 = 0.0616	716.18
323.19 K, 13000 kPa, x2 = 0.0616	716.99
323.19 K, 14000 kPa, x2 = 0.0616	717.79
323.19 K, 15000 kPa, x2 = 0.0616	718.57
323.19 K, 16000 kPa, x2 = 0.0616	719.34
323.19 K, 17000 kPa, x2 = 0.0616	720.12
323.19 K, 18000 kPa, x2 = 0.0616	720.9
323.19 K, 19000 kPa, x2 = 0.0616	721.64
323.19 K, 20000 kPa, x2 = 0.0616	722.37
323.19 K, 21000 kPa, x2 = 0.0616	723.09
323.19 K, 22000 kPa, x2 = 0.0616	723.78
323.19 K, 23000 kPa, x2 = 0.0616	724.44
323.19 K, 24000 kPa, x2 = 0.0616	725.08
323.19 K, 25000 kPa, x2 = 0.0616	725.73
333.12 K, 1000 kPa, x2 = 0.0616	698.91
333.12 K, 1000 kPa, x2 = 0.2801	693.73
333.12 K, 2000 kPa, x2 = 0.0616	699.91
333.12 K, 2000 kPa, x2 = 0.2801	694.68
333.12 K, 3000 kPa, x2 = 0.0616	700.87
333.12 K, 3000 kPa, x2 = 0.2801	695.65
333.12 K, 4000 kPa, x2 = 0.0616	701.83
333.12 K, 4000 kPa, x2 = 0.2801	696.63
333.12 K, 5000 kPa, x2 = 0.0616	702.77
333.12 K, 5000 kPa, x2 = 0.2801	697.61
333.12 K, 6000 kPa, x2 = 0.0616	703.69
333.12 K, 6000 kPa, x2 = 0.2801	698.55
333.12 K, 7000 kPa, x2 = 0.0616	704.67
333.12 K, 7000 kPa, x2 = 0.2801	699.5
333.12 K, 8000 kPa, x2 = 0.0616	705.56
333.12 K, 8000 kPa, x2 = 0.2801	700.43
333.12 K, 9000 kPa, x2 = 0.0616	706.45
333.12 K, 9000 kPa, x2 = 0.2801	701.36
333.12 K, 10000 kPa, x2 = 0.0616	707.38
333.12 K, 10000 kPa, x2 = 0.2801	702.27
333.12 K, 10990 kPa, x2 = 0.0616	708.26
333.12 K, 10990 kPa, x2 = 0.2801	703.19
333.12 K, 12000 kPa, x2 = 0.0616	709.09
333.12 K, 12000 kPa, x2 = 0.2801	704.1
333.12 K, 13000 kPa, x2 = 0.0616	709.96
333.12 K, 13000 kPa, x2 = 0.2801	704.98
333.12 K, 14000 kPa, x2 = 0.0616	710.8
333.12 K, 14000 kPa, x2 = 0.2801	705.81
333.12 K, 15000 kPa, x2 = 0.0616	711.63
333.12 K, 15000 kPa, x2 = 0.2801	706.72
333.12 K, 16000 kPa, x2 = 0.0616	712.43

Source: the NIST ThermoML archive (doi:10.1016/j.jct.2011.08.016)
